Patent publication US20230048132A1, “CYCLIN-DEPENDENT KINASE INHIBITORS” (SPV THERAPEUTICS INC., priority 2018, published 2023)
“And” between values parts separate entries of the source, which are not always exact repeats. Equal values may be shown once. Read-outs that look alike come from different tables or passages of the source.

How the values were obtained:
Experiment in all cases: CDK inhibition assay (microfluidic LabChip, IC50 format)
CDK2-CYCLINA = target: T1, CDK2-CYCLINA (Homo sapiens, UniProt P24941); assay type: biochemical; details: Table 4a; read-out: CDK2 CyclinA IC50
T1 construct: purchased Millipore

CDK6-CYCLIND3 = target: T2, CDK6-CYCLIND3 (Homo sapiens, UniProt Q00534); assay type: biochemical
T2 construct: purchased Carna

CDK7 CyclinH = CDK7 CyclinH (Homo sapiens, UniProt P50613); assay type: biochemical; details: Table 4a
CDK9-CYCLINT1 = target: T3, CDK9-CYCLINT1 (Homo sapiens, UniProt P50750); assay type: biochemical; details: Table 4a; read-out: CDK9 CyclinT1 IC50
T3 construct: purchased Carna

CDK4-CYCLIND1 = CDK4-CYCLIND1 (Homo sapiens, UniProt P11802)
Experimental: Inhibition assays were performed using microfluidic LabChip 300 Drug Discovery System from Caliper Life Sciences. […] The assay has a total volume of 10 μL consisting of 5 μL of enzyme and buffer and 5 μL of substrate and buffer. The test compounds were diluted in 100% dimethylsulfoxide (DMSO) using 3-fold dilution steps. […] Compounds were tested in a single well for each dilution and the final concentration of DMSO was maintained at 1%.
The assay buffer contained 100 mM HEPES, pH 7.5, 0.01% Triton X-100, 0.1% bovine serum albumin (BSA), 5 mM MgCl2; 1 mM dithiothreitol (DTT), 10 μM sodium orthovanadate, and 10 μM β-glycerophosphate.
The assay was conducted by adding 5 μL of enzyme, adenosine triphosphate (ATP) and buffer to an assay plate. A 100 nL aliquot of the diluted compounds were added to the plate. The assay was initiated by the addition of 5 μL of phosphoenolpyruvate substrate (PEP) in buffer. […] The reaction was terminated by the addition of EDTA. The plates were analyzed using a Caliper LabChip 3000.
Additional inhibition assays were performed as described above.
The assays were conducted as described above for the racemates.

[1] = Table 4a, read-out: CDK6 CyclinD3 IC50
[2] = CDK4 CyclinD1 IC50, Table 4a, a second value in parentheses for some compounds
[3] = Table 4b, upper part, read-out: CDK6 IC50
[4] = CDK4 IC50, Table 4b, upper part

T2 sequence (Q00534 whole entry): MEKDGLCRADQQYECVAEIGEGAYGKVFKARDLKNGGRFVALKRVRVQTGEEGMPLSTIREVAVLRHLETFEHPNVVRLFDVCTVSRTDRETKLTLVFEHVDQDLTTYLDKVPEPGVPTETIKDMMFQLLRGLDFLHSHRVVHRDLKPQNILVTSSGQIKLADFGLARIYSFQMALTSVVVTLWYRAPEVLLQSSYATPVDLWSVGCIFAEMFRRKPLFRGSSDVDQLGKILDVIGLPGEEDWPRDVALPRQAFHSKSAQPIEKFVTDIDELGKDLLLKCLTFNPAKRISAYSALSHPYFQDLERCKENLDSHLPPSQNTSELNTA
T2 sequence (P30281 whole entry partner): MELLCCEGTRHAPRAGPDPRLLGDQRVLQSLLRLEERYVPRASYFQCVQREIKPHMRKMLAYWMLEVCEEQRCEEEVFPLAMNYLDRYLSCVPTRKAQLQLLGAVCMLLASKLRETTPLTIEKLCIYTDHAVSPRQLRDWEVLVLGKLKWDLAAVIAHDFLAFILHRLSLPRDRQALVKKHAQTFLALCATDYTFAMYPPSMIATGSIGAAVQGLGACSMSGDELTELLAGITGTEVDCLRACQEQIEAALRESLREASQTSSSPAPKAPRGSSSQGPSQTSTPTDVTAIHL
T3 sequence (P50750 whole entry): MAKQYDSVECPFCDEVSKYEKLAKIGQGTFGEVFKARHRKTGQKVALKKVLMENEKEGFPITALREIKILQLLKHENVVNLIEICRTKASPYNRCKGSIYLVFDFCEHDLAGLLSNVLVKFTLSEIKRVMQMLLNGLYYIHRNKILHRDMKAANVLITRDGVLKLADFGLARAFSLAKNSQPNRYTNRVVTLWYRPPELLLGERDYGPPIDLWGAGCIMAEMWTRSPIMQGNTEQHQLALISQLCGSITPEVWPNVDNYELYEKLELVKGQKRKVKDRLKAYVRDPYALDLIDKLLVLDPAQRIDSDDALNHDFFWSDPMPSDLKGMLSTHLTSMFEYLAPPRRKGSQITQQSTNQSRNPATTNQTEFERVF
T3 sequence (O60563 whole entry partner): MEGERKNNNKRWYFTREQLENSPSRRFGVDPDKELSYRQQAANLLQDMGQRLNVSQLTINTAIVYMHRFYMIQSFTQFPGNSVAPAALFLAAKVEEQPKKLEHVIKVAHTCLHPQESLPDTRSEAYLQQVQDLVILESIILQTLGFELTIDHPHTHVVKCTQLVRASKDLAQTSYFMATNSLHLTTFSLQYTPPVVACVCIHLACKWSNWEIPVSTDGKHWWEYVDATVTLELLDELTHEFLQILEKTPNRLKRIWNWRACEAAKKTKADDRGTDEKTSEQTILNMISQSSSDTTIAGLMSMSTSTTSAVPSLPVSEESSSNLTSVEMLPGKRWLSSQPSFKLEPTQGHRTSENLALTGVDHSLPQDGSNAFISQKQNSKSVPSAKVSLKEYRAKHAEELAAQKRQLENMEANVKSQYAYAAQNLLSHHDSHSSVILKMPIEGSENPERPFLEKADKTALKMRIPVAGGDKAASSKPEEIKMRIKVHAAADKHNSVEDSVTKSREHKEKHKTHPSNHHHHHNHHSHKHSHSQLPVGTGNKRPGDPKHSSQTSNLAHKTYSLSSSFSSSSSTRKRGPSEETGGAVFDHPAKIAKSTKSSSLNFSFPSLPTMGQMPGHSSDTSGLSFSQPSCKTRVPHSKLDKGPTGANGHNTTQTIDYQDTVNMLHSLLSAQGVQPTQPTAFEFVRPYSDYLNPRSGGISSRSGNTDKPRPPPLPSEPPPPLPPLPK
Sequence of CDK7 CyclinH (P50613 whole entry): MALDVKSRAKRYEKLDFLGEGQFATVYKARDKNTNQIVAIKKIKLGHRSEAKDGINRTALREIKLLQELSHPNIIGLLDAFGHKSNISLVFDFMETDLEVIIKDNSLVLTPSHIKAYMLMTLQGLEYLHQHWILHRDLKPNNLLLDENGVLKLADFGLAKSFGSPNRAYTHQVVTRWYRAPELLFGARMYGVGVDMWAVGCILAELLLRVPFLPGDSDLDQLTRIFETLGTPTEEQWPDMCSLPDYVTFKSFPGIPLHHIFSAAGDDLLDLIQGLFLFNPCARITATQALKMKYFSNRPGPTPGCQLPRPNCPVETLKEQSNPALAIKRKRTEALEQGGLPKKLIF
Sequence of CDK7 CyclinH (P51946 whole entry partner): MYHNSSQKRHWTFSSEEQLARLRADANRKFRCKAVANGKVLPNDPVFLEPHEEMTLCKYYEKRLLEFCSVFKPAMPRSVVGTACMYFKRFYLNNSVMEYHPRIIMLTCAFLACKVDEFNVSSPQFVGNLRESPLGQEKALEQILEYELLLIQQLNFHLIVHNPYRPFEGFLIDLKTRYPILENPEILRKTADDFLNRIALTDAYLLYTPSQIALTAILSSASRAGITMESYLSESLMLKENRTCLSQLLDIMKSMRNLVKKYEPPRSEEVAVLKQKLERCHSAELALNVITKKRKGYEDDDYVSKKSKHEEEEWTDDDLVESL
Sequence of CDK7 CyclinH (P51948 whole entry partner): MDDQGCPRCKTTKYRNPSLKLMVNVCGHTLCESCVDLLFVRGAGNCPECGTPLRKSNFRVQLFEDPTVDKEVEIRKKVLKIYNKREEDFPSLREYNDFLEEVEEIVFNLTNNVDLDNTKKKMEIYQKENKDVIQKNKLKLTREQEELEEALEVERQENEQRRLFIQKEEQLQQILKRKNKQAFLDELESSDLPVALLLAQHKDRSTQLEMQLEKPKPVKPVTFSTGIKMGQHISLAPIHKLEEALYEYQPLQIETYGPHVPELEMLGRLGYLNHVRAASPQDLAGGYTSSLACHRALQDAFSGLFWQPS
Sequence of CDK4-CYCLIND1 (P11802 whole entry): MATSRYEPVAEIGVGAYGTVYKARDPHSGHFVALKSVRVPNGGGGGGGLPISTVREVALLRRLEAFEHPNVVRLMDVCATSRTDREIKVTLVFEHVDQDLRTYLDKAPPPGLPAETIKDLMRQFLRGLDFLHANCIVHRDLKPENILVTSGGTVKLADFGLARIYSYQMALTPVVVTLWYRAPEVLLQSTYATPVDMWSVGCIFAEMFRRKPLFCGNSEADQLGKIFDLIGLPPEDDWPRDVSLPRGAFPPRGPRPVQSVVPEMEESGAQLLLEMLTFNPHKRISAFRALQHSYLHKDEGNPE
Sequence of CDK4-CYCLIND1 (P24385 whole entry partner): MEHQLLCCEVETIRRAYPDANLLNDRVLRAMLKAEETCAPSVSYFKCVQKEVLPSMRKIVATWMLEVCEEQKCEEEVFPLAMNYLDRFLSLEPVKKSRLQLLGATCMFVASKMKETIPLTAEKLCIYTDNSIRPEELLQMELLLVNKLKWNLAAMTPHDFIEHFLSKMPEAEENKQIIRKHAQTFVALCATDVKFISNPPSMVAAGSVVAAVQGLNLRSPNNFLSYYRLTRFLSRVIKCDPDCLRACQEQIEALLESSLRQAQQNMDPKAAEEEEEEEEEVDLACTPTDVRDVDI

| SMILES | IC50 (CDK2-CYCLINA) | IC50 (CDK6-CYCLIND3; [1]) | IC50 (CDK7 CyclinH) | IC50 (CDK9-CYCLINT1) | IC50 (CDK4-CYCLIND1; [2]) | IC50 (CDK6-CYCLIND3; [3]) | IC50 (CDK4-CYCLIND1; [4]) |
| --- | --- | --- | --- | --- | --- | --- | --- |
| COc1cc(N2CCN(C(C)C)CC2)ccc1Nc1ncc2c(n1)N(C1CCCC1)C(=O)[C@]1(CCNC1=O)C2 [Example D167, (S)-8-cyclopentyl-2-((4-(4-isopropylpiperazin-1-yl)-2-methoxyphenyl)amino)-5,8-dihydro-7H-spiro[pyrido[2,3-d]pyrimidine-6,3′-pyrrolidine]-2′,7-dione] | 2900 nM | 111 nM | 12000 nM | 418 nM | 69 nM |  |  |
| COc1cc(N2CCN(C)CC2)ccc1Nc1ncc2c(n1)N(C1CCCC1)C(=O)[C@]1(CCNC1=O)C2 [Example D166, (S)-8-cyclopentyl-2-((2-methoxy-4-(4-methylpiperazin-1-yl)phenyl)amino)-5,8-dihydro-7H-spiro[pyrido[2,3-d]pyrimidine-6,3′-pyrrolidine]-2′,7-dione] | 1860 nM | 79.2 nM | 13900 nM | 307 nM |  |  |  |
| CN(C)[C@@H]1CCN(c2ccc(Nc3ncc4c(n3)N(C3CCCC3)C(=O)[C@]3(CCNC3=O)C4)cn2)C1 [Example D175, (S)-8-cyclopentyl-2-((6-((R)-3-(dimethylamino)pyrrolidin-1-yl)pyridin-3-yl)amino)-5,8-dihydro-7H-spiro[pyrido[2,3-d]pyrimidine-6,3′-pyrrolidine]-2′,7-dione] | 57.1 nM | 2.6 nM | 465 nM | 3.62 nM | 1.56 nM and 0.83 nM |  |  |
| COc1cc(Nc2ncc3c(n2)N(C2CCCC2)C(=O)[C@]2(CCNC2=O)C3)ccc1N1CCNCC1 [Example D159, (S)-8-cyclopentyl-2-((3-methoxy-4-(piperazin-1-yl)phenyl)amino)-5,8-dihydro-7H-spiro[pyrido[2,3-d]pyrimidine-6,3′-pyrrolidine]-2′,7-dione] | 35 nM | 4.47 nM | 318 nM | 7.34 nM | 1.62 nM |  |  |
| O=C1NCC[C@@]12Cc1cnc(Nc3ccc(N4CC5(CNC5)C4)c(F)c3)nc1N(C1CCCC1)C2=O [Example D173, (S)-8-cyclopentyl-2-((3-fluoro-4-(2,6-diazaspiro[3.3]heptan-2-yl)phenyl)amino)-5,8-dihydro-7H-spiro[pyrido[2,3-d]pyrimidine-6,3′-pyrrolidine]-2′,7-dione] | 110 nM | 11.6 nM | 682 nM | 5.74 nM | 5.37 nM |  |  |
| COc1cc(N2CCNCC2)ccc1Nc1ncc2c(n1)N(C1CCCC1)C(=O)[C@]1(CCNC1=O)C2 [Example D165, (S)-8-cyclopentyl-2-((2-methoxy-4-(piperazin-1-yl)phenyl)amino)-5,8-dihydro-7H-spiro[pyrido[2,3-d]pyrimidine-6,3′-pyrrolidine]-2′,7-dione] | 775 nM | 58.5 nM | 7300 nM | 236 nM | 29.2 nM |  |  |
| COc1cc(Nc2ncc3c(n2)N(C2CCCC2)C(=O)[C@]2(CCNC2=O)C3)ccc1N1CCN(C)CC1 [Example D160, (S)-8-cyclopentyl-2-((3-methoxy-4-(4-methylpiperazin-1-yl)phenyl)amino)-5,8-dihydro-7H-spiro[pyrido[2,3-d]pyrimidine-6,3′-pyrrolidine]-2′,7-dione] | 33.5 nM | 3.41 nM | 157 nM | 6.41 nM | 1.2 nM |  |  |
| CN1CCN(c2ccc(Nc3ncc4c(n3)N(C3CCCC3)C(=O)[C@]3(CCNC3=O)C4)cn2)CC1 [Example D150, (S)-8-cyclopentyl-2-((6-(4-methylpiperazin-1-yl)pyridin-3-yl)amino)-5,8-dihydro-7H-spiro[pyrido[2,3-d]pyrimidine-6,3′-pyrrolidine]-2′,7-dione] | 52.9 nM | 2.34 nM | 402 nM | 6.86 nM | 1.16 nM |  |  |
| CCN1CCN(Cc2ccc(Nc3ncc4c(n3)N(C3CCCC3)C(=O)[C@]3(CCNC3=O)C4)nc2)CC1 [Example D155, (S)-8-cyclopentyl-2-((5-((4-ethylpiperazin-1-yl)methyl)pyridin-2-yl)amino)-5,8-dihydro-7H-spiro[pyrido[2,3-d]pyrimidine-6,3′-pyrrolidine]-2′,7-dione] | 3440 nM | 8.58 nM | 14700 nM | 1180 nM | 6.22 nM |  |  |
| O=C1NCC[C@@]12Cc1cnc(Nc3ccc(-c4cn[nH]c4)cc3)nc1N(C1CCCC1)C2=O [Example D168, (S)-2-((4-(1H-pyrazol-4-yl)phenyl)amino)-8-cyclopentyl-5,8-dihydro-7H-spiro[pyrido[2,3-d]pyrimidine-6,3′-pyrrolidine]-2′,7-dione] | 55.4 nM | 30 nM | 3100 nM | 6.52 nM |  |  |  |
| Cn1cc(-c2ccc(Nc3ncc4c(n3)N(C3CCCC3)C(=O)[C@]3(CCNC3=O)C4)cc2)cn1 [Example D169, (S)-8-cyclopentyl-2-((4-(1-methyl-1H-pyrazol-4-yl)phenyl)amino)-5,8-dihydro-7H-spiro[pyrido[2,3-d]pyrimidine-6,3′-pyrrolidine]-2′,7-dione] | 33.5 nM | 9.37 nM | 2820 nM | 2.92 nM |  |  |  |
| O=C1NCCC12Cc1cnc(Nc3ccc(OCCN4CCCCC4)cn3)nc1N(C1CCCC1)C2=O (stereo not shown) [Example D34, 8-cyclopentyl-2-((5-(2-(piperidin-1-yl)ethoxy)pyridin-2-yl)amino)-5,8-dihydro-7H-spiro[pyrido[2,3-d]pyrimidine-6,3′-pyrrolidine]-2′,7-dione] |  |  |  |  |  | 56.5 nM | 44.6 nM |
| CN1C(=O)CC2(Cc3cnc(Nc4ccc(OCCN5CCCC5)c(F)c4)nc3N(C3CCCC3)C2=O)C1=O (stereo not shown) [Example D30, 8-cyclopentyl-2-((3-fluoro-4-(2-(pyrrolidin-1-yl)ethoxy)phenyl)amino)-1′-methyl-5,8-dihydro-7H-spiro[pyrido[2,3-d]pyrimidine-6,3′-pyrrolidine]-2′,5′,7-trione] |  |  |  |  |  | 1450 nM | 472 nM |
| CN(C)[C@H]1CCN(C(=O)c2ccc(Nc3ncc4c(n3)N(C3CCCC3)C(=O)C3(CCNC3=O)C4)cn2)C1 (stereo partly drawn) [Example D47, 8-cyclopentyl-2-((6-((S)-3-(dimethylamino)pyrrolidine-1-carbonyl)pyridin-3-yl)amino)-5,8-dihydro-7H-spiro[pyrido[2,3-d]pyrimidine-6,3′-pyrrolidine]-2′,7-dione] |  |  |  |  |  | 10.6 nM | 3.37 nM |
| CN(C)CCOc1ccc(Nc2ncc3c(n2)N(C2CCCC2)C(=O)C2(CCNC2=O)C3)cc1 (stereo not shown) [Example D13, 8-cyclopentyl-2-((4-(2-(dimethylamino)ethoxy)phenyl)amino)-5,8-dihydro-7H-spiro[pyrido[2,3-d]pyrimidine-6,3′-pyrrolidine]-2′,7-dione] |  |  |  |  |  | 6.38 nM | 3.35 nM |
| O=C1NCCC12Cc1cnc(Nc3ccc(N4CCNCC4)nc3)nc1N(C1CCCC1)C2=O (stereo not shown) [Example D7, 8-cyclopentyl-2-((6-(piperazin-1-yl)pyridin-3-yl)amino)-5,8-dihydro-7H-spiro[pyrido[2,3-d]pyrimidine-6,3′-pyrrolidine]-2′,7-dione] |  |  |  |  |  | 13.1 nM | 8.68 nM |
| O=C1NCCC12Cc1cnc(Nc3ccc(N4CC5(CNC5)C4)cn3)nc1N(C1CCCC1)C2=O (stereo not shown) [Example D41, 2-((5-(2,6-diazaspiro[3.3]heptan-2-yl)pyridin-2-yl)amino)-8-cyclopentyl-5,8-dihydro-7H-spiro[pyrido[2,3-d]pyrimidine-6,3′-pyrrolidine]-2′,7-dione] |  |  |  |  |  | 8.79 nM | 4.61 nM |
| CN(C)CCOc1ccc(Nc2ncc3c(n2)N(C2CCCC2)C(=O)C2(CC(=O)N(C)C2=O)C3)cc1 (stereo not shown) [Example D28, 8-cyclopentyl-2-((4-(2-(dimethylamino)ethoxy)phenyl)amino)-1′-methyl-5,8-dihydro-7H-spiro[pyrido[2,3-d]pyrimidine-6,3′-pyrrolidine]-2′,5′,7-trione] |  |  |  |  |  | 491 nM | 155 nM |
| CN1C(=O)CC2(Cc3cnc(Nc4ccc(N5CCNCC5)cn4)nc3N(C3CCCC3)C2=O)C1=O (stereo not shown) [Example D23, 8-cyclopentyl-1′-methyl-2-((5-(piperazin-1-yl)pyridin-2-yl)amino)-5,8-dihydro-7H-spiro[pyrido[2,3-d]pyrimidine-6,3′-pyrrolidine]-2′,5′,7-trione] |  |  |  |  |  | 65400 nM | 17100 nM |
| O=C1NCCC12Cc1cnc(Nc3ccc(N4CCNCC4)cc3F)nc1N(C1CCCC1)C2=O (stereo not shown) [Example D32, 8-cyclopentyl-2-((2-fluoro-4-(piperazin-1-yl)phenyl)amino)-5,8-dihydro-7H-spiro[pyrido[2,3-d]pyrimidine-6,3′-pyrrolidine]-2′,7-dione] |  |  |  |  |  | 11.2 nM | 5.16 nM |
| CN(C)[C@H]1CCN(c2ccc(Nc3ncc4c(n3)N(C3CCCC3)C(=O)C3(CCNC3=O)C4)cc2)C1 (stereo partly drawn) [Example D44, 8-cyclopentyl-2-((4-((S)-3-(dimethylamino)pyrrolidin-1-yl)phenyl)amino)-5,8-dihydro-7H-spiro[pyrido[2,3-d]pyrimidine-6,3′-pyrrolidine]-2′,7-dione] |  |  |  |  |  | 24.6 nM | 12 nM |
| CC(C)N1CCN(c2ccc(Nc3ncc4c(n3)N(C3CCCC3)C(=O)C3(CCNC3=O)C4)nc2)CC1 (stereo not shown) [Example D9, 8-cyclopentyl-2-((5-(4-isopropylpiperazin-1-yl)pyridin-2-yl)amino)-5,8-dihydro-7H-spiro[pyrido[2,3-d]pyrimidine-6,3′-pyrrolidine]-2′,7-dione] |  |  |  |  |  | 6.11 nM | 2.99 nM |
| O=C1NCCC12Cc1cnc(Nc3ccc(N4CCOCC4)c(F)c3)nc1N(C1CCCC1)C2=O (stereo not shown) [Example D17, 8-cyclopentyl-2-((3-fluoro-4-morpholinophenyl)amino)-5,8-dihydro-7H-spiro[pyrido[2,3-d]pyrimidine-6,3′-pyrrolidine]-2′,7-dione] |  |  |  |  |  | 10.2 nM | 4.41 nM |
